Values of other authors in patent US20060167069A1, “Pharmaceutical composition of metaxalone with enhanced oral bioavailability” (Sun Pharmaceutical Industries Ltd., priority 2002, published 2006).

Settings: prior art statement

Q: With `Cc1cc(C)cc(OCC2CNC(=O)O2)c1` (stereo not shown) [Metaxalone, 5-(3,5-dimethylphenoxymethyl)-2-oxazolidinone] as the compound, how does the aqueous solubility read?
A: The aqueous solubility was “low aqueous solubility”.
